Assay in all cases: relative viability (nuclei count vs DMSO), 5 days (fraction); higher = more cells survive
Compound in one assay: CC1=C(N=C(N=C1N)[C@H](CC(=O)N)NC[C@@H](C(=O)N)N)C(=O)N[C@@H]([C@H](C2=CN=CN2)OC3C(C(C(C(O3)CO)O)O)OC4C(C(C(C(O4)CO)O)OC(=O)N)O)C(=O)N[C@H](C)[C@H]([C@H](C)C(=O)N[C@@H]([C@@H](C)O)C(=O)NCCC5=NC(=CS5)C6=NC(=CS6)C(=O)NCCC[S+](C)C)O [Bleomycin]
Conditions: main component drawn. In a few lines:
(§1)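 In 1536-well plates, lung cancer cell lines rested overnight at 37 °C before five library-drug doses (not always all listed), √10 apart, were pinned onto vehicle-anchored plates. Nuclei were counted with MetaXpress from 4× Hoechst images taken after 5 days without medium change. Viability compares treated-well with vehicle-well nuclei as a median over plates, and plates needed control CV below 25% plus at least one doubling to pass.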

Compound in a further assay: COc1cc([C@@H]2c3cc4c(cc3[C@@H](O[C@@H]3O[C@@H]5CO[C@@H](C)O[C@H]5[C@H](O)[C@H]3O)[C@H]3COC(=O)[C@H]23)OCO4)cc(OC)c1O [Etoposide]
A digest of the protocol:
as §1

Compound in the assay “Etoposide + Navitoclax”: COc1cc([C@@H]2c3cc4c(cc3[C@@H](O[C@@H]3O[C@@H]5CO[C@@H](C)O[C@H]5[C@H](O)[C@H]3O)[C@H]3COC(=O)[C@H]23)OCO4)cc(OC)c1O [Etoposide] + CC1(C)CCC(c2ccc(Cl)cc2)=C(CN2CCN(c3ccc(C(=O)NS(=O)(=O)c4ccc(N[C@H](CCN5CCOCC5)CSc5ccccc5)c(S(=O)(=O)C(F)(F)F)c4)cc3)CC2)C1 [Navitoclax] (partner 0.5 µM)
A digest of the protocol: (§2)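 Values are medians from duplicate plates. Each reflects relative viability, defined as the nuclei count of treated wells over that of vehicle wells. Lung cancer cell lines in 1536-well plates were pin-tool dosed one day after seeding with one drug alone or with a fixed anchor-drug dose plus five library-drug doses (not always all listed) in √10 steps, then fixed, stained and imaged at 4× after 5 days.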

Compound in the assay “Bleomycin + Trametinib”: CC1=C(N=C(N=C1N)[C@H](CC(=O)N)NC[C@@H](C(=O)N)N)C(=O)N[C@@H]([C@H](C2=CN=CN2)OC3C(C(C(C(O3)CO)O)O)OC4C(C(C(C(O4)CO)O)OC(=O)N)O)C(=O)N[C@H](C)[C@H]([C@H](C)C(=O)N[C@@H]([C@@H](C)O)C(=O)NCCC5=NC(=CS5)C6=NC(=CS6)C(=O)NCCC[S+](C)C)O [Bleomycin] + CC(=O)Nc1cccc(-n2c(=O)n(C3CC3)c(=O)c3c(Nc4ccc(I)cc4F)n(C)c(=O)c(C)c32)c1 [Trametinib] (partner 0.02 µM)
The note with it: main component drawn. In a few lines:
as §2

For NCI-H2347, the relative viability with Bleomycin (0.01 µM) came out at 0.915; in the assay with Bleomycin (0.03162 µM), 1.03; with Bleomycin (0.1 µM), 0.918; in the assay with Bleomycin (0.3162 µM), 0.461; in the assay with Bleomycin (1 µM), 0.558; with Etoposide (0.01 µM), 1. The relative viability in the assay with Etoposide (0.03162 µM) is 1.01; with Etoposide (0.1 µM), 0.733; with Etoposide (0.3162 µM), 0.541; in the assay with Etoposide (1 µM) it was 0.45; with Etoposide + Navitoclax (first compound 0.01 µM) it was 0.809; in the assay with Etoposide + Navitoclax (first compound 0.03162 µM), 0.626. The relative viability with Etoposide + Navitoclax (first compound 0.1 µM) was 0.405; with Etoposide + Navitoclax (first compound 0.3162 µM) it was 0.354; with Etoposide + Navitoclax (first compound 1 µM) it was 0.28; in the assay with Bleomycin + Trametinib (first compound 0.01 µM), 0.309; with Bleomycin + Trametinib (first compound 0.03162 µM), 0.254; in the assay with Bleomycin + Trametinib (first compound 0.1 µM), 0.29. Further, the relative viability in the assay with Bleomycin + Trametinib (first compound 0.3162 µM) was 0.279; with Bleomycin + Trametinib (first compound 1 µM) it was 0.226.
Turning to LCLC-97TM1, the relative viability in the assay with Bleomycin (0.01 µM) was found to be 0.394; with Bleomycin (0.03162 µM), 0.525; in the assay with Bleomycin (0.1 µM), 0.258; in the assay with Bleomycin (0.3162 µM) it was 0.16; with Bleomycin (1 µM), 0.0918; in the assay with Etoposide (0.01 µM), 0.945. For the same cell line, the relative viability with Etoposide (0.03162 µM) came out at 1.14; with Etoposide (0.1 µM), 0.634; with Etoposide (0.3162 µM), 0.468; with Etoposide (1 µM), 0.138; with Etoposide + Navitoclax (first compound 0.03162 µM), 0.62; with Etoposide + Navitoclax (first compound 0.1 µM) it was 0.327. The relative viability was 0.178 with Etoposide + Navitoclax (first compound 0.3162 µM); 0.141 with Etoposide + Navitoclax (first compound 1 µM); 0.169 with Bleomycin + Trametinib (first compound 0.01 µM); 0.195 with Bleomycin + Trametinib (first compound 0.03162 µM); 0.16 with Bleomycin + Trametinib (first compound 0.1 µM); 0.169 in the assay with Bleomycin + Trametinib (first compound 0.3162 µM). The relative viability in the assay with Bleomycin + Trametinib (first compound 1 µM) is 0.106.
As for EPLC-272H, the relative viability in the assay with Bleomycin (0.01 µM) came to 0.811; with Bleomycin (0.03162 µM), 0.882; with Bleomycin (0.1 µM) it was 0.434; with Bleomycin (0.3162 µM) it was 0.132; in the assay with Bleomycin (1 µM), 0.151; in the assay with Etoposide (0.01 µM), 1.05. Besides, the relative viability with Etoposide (0.03162 µM) worked out at 1.09; in the assay with Etoposide (0.1 µM), 0.658; with Etoposide (0.3162 µM) it was 0.815; with Etoposide (1 µM), 0.513; in the assay with Etoposide + Navitoclax (first compound 0.01 µM) it was 1.22; in the assay with Etoposide + Navitoclax (first compound 0.03162 µM) it was 1.25. The relative viability came to 0.71 with Etoposide + Navitoclax (first compound 0.1 µM); 0.962 with Etoposide + Navitoclax (first compound 0.3162 µM); 0.436 in the assay with Etoposide + Navitoclax (first compound 1 µM); 0.302 in the assay with Bleomycin + Trametinib (first compound 0.01 µM); 0.256 with Bleomycin + Trametinib (first compound 0.03162 µM); 0.207 with Bleomycin + Trametinib (first compound 0.1 µM). For the same cell line, the figures for the relative viability with Bleomycin + Trametinib (first compound 0.3162 µM) and with Bleomycin + Trametinib (first compound 1 µM) were 0.193 and 0.184, respectively.
As to NCI-H1915, the relative viability turned out to be 0.739 with Bleomycin (0.01 µM); 0.74 with Bleomycin (0.03162 µM); 0.489 with Bleomycin (0.1 µM); 0.287 with Bleomycin (0.3162 µM); 0.165 in the assay with Bleomycin (1 µM); 1 in the assay with Etoposide (0.01 µM). The relative viability with Etoposide (0.03162 µM) is 1.1; with Etoposide (0.1 µM), 0.891; with Etoposide (0.3162 µM) it was 0.889; with Etoposide (1 µM), 0.684; with Etoposide + Navitoclax (first compound 0.01 µM) it was 0.826; in the assay with Etoposide + Navitoclax (first compound 0.03162 µM), 0.814. The relative viability with Etoposide + Navitoclax (first compound 0.1 µM) amounted to 0.815; with Etoposide + Navitoclax (first compound 0.3162 µM), 0.725; in the assay with Etoposide + Navitoclax (first compound 1 µM), 0.621; with Bleomycin + Trametinib (first compound 0.01 µM), 0.282; with Bleomycin + Trametinib (first compound 0.03162 µM) it was 0.295; with Bleomycin + Trametinib (first compound 0.1 µM), 0.215. Moreover, the relative viability in the assay with Bleomycin + Trametinib (first compound 0.3162 µM) turned out to be 0.165; with Bleomycin + Trametinib (first compound 1 µM) it was 0.128.
For NCI-H3122, the relative viability with Bleomycin (0.01 µM) worked out at 1; with Bleomycin (0.03162 µM) it was 0.993; with Bleomycin (0.1 µM) it was 0.928; with Bleomycin (0.3162 µM), 0.528; with Bleomycin (1 µM), 0.358; with Etoposide (0.01 µM) it was 1. Moreover, the relative viability in the assay with Etoposide (0.03162 µM) came out at 0.995; with Etoposide (0.1 µM) it was 0.983; with Etoposide (0.3162 µM), 0.854; in the assay with Etoposide (1 µM) it was 0.333; with Etoposide + Navitoclax (first compound 0.01 µM), 1.05; in the assay with Etoposide + Navitoclax (first compound 0.03162 µM) it was 1.04. Besides, the relative viability stood at 1.05 in the assay with Etoposide + Navitoclax (first compound 0.1 µM); 0.877 with Etoposide + Navitoclax (first compound 0.3162 µM); 0.477 in the assay with Etoposide + Navitoclax (first compound 1 µM); 0.257 with Bleomycin + Trametinib (first compound 0.01 µM); 0.247 in the assay with Bleomycin + Trametinib (first compound 0.03162 µM); 0.231 with Bleomycin + Trametinib (first compound 0.1 µM). For the same cell line, the relative viability amounted to 0.185 with Bleomycin + Trametinib (first compound 0.3162 µM) and 0.187 with Bleomycin + Trametinib (first compound 1 µM).

The record behind these values is the supplement of paper PMC10307832.
